Values joined by “and” are separate entries in the source; they are usually repeats but may differ in a detail not shown here. Equal values may be shown once.
Test system: BDF1 mice, Adenocarcinoma 755 s.c., tumor weight T/C
Assay: NCI In Vivo Anticancer Drug Screen. Data for tumor model Adenocarcinoma 755 (subcutaneous) in B6D2F1 (BDF1) mice
Conditions: endpoint: mean tumor weight, higher = larger tumour
Outline: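 Transplantable tumor implanted; mice dosed with compound or vehicle; survival or tumor size recorded; ratio of treated to vehicle control reported.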

[1] = dose: 30.0 mg/kg/injection, schedule: Q01DX011 (ip), vehicle: carboxymethylcellulose (CMC)
[2] = dose: 60.0 mg/kg/injection, schedule: Q01DX011 (ip), vehicle: carboxymethylcellulose (CMC)
[3] = dose: 120.0 mg/kg/injection, schedule: Q01DX011 (ip), vehicle: carboxymethylcellulose (CMC)
[4] = dose: 50.0 mg/kg/injection, schedule: Q01DX011 (ip), vehicle: other
[5] = dose: 100.0 mg/kg/injection, schedule: Q01DX011 (ip), vehicle: other

CO[C@@]12[C@H](COC(N)=O)C3=C(C(=O)C(C)=C(N)C3=O)N1C[C@@H]1N[C@@H]12
T/C (dose: 0.1 mg/kg/injection, schedule: Q01DX011 (ip), vehicle: carboxymethylcellulose (CMC)): 82 % of control | T/C (dose: 0.1 mg/kg/injection, schedule: Q01DX011 (ip), vehicle: methylcellulose (MC)): 60 % of control | T/C (dose: 0.2 mg/kg/injection, schedule: Q01DX011 (ip), vehicle: carboxymethylcellulose (CMC)): 79 % of control | T/C (dose: 0.25 mg/kg/injection, schedule: Q01DX011 (ip), vehicle: carboxymethylcellulose (CMC)): 69 % of control | T/C (dose: 0.32 mg/kg/injection, schedule: Q01DX011 (ip), vehicle: carboxymethylcellulose (CMC)): 92 % of control and 116 % of control | T/C (dose: 0.5 mg/kg/injection, schedule: Q01DX011 (ip), vehicle: carboxymethylcellulose (CMC)): 17 % of control | T/C (dose: 0.5 mg/kg/injection, schedule: Q01DX011 (ip), vehicle: methylcellulose (MC)): 26 % of control | T/C (dose: 0.53 mg/kg/injection, schedule: Q01DX011 (ip), vehicle: carboxymethylcellulose (CMC)): 63 % of control and 71 % of control | T/C (dose: 0.82 mg/kg/injection, schedule: Q01DX011 (ip), vehicle: carboxymethylcellulose (CMC)): 22 % of control | T/C (dose: 1.0 mg/kg/injection, schedule: Q01DX011 (ip), vehicle: carboxymethylcellulose (CMC)): 8 % of control | T/C (dose: 1.0 mg/kg/injection, schedule: Q01DX011 (ip), vehicle: methylcellulose (MC)): 12 % of control | T/C (dose: 1.02 mg/kg/injection, schedule: Q01DX011 (ip), vehicle: carboxymethylcellulose (CMC)): 14 % of control | T/C (dose: 1.36 mg/kg/injection, schedule: Q01DX011 (ip), vehicle: carboxymethylcellulose (CMC)): 5 % of control | T/C (dose: 2.0 mg/kg/injection, schedule: Q01DX011 (ip), vehicle: carboxymethylcellulose (CMC)): 1 % of control | T/C (dose: 180.0 micrograms/kg/injection, schedule: Q01DX011 (ip), vehicle: carboxymethylcellulose (CMC)): 89 % of control | T/C (dose: 300.0 micrograms/kg/injection, schedule: Q01DX011 (ip), vehicle: carboxymethylcellulose (CMC)): 86 % of control | T/C (dose: 450.0 micrograms/kg/injection, schedule: Q01DX011 (ip), vehicle: carboxymethylcellulose (CMC)): 24 % of control and 29 % of control | T/C (dose: 512.0 micrograms/kg/injection, schedule: Q01DX011 (ip), vehicle: carboxymethylcellulose (CMC)): 87 % of control | T/C (dose: 900.0 micrograms/kg/injection, schedule: Q01DX011 (ip), vehicle: carboxymethylcellulose (CMC)): 5 % of control | T/C (dose: 1025.0 micrograms/kg/injection, schedule: Q01DX011 (ip), vehicle: carboxymethylcellulose (CMC)): 63 % of control | T/C (dose: 2050.0 micrograms/kg/injection, schedule: Q01DX011 (ip), vehicle: carboxymethylcellulose (CMC)): 8 % of control

Nc1nc2c(nc(I)n2C2OC(CO)C(O)C2O)c(=O)[nH]1 (centres undefined)
T/C [1]: 94 % of control | T/C [2]: 87 % of control | T/C [3]: 26 % of control | T/C (dose: 240.0 mg/kg/injection, schedule: Q01DX011 (ip), vehicle: carboxymethylcellulose (CMC)): 40 % of control

Nc1ncnc2c1nc(Br)n2C1OC(CO)C(O)C1O (centres undefined)
T/C [1]: 117 % of control | T/C [3]: 109 % of control

C=C(Cl)CN(CC)CCO
T/C [4]: 77 % of control | T/C [5]: 69 % of control | T/C (dose: 200.0 mg/kg/injection, schedule: Q01DX011 (ip), vehicle: other): 76 % of control

c1ncc2[nH]cnc2n1
T/C (dose: 27.33 mg/kg/injection, schedule: Q01DX011 (ip), vehicle: carboxymethylcellulose (CMC)): 71 % of control | T/C (dose: 49.34 mg/kg/injection, schedule: Q01DX011 (ip), vehicle: carboxymethylcellulose (CMC)): 80 % of control | T/C (dose: 54.67 mg/kg/injection, schedule: Q01DX011 (ip), vehicle: carboxymethylcellulose (CMC)): 82 % of control | T/C (dose: 62.5 mg/kg/injection, schedule: Q01DX011 (ip), vehicle: methylcellulose (MC)): 68 % of control | T/C (dose: 98.68 mg/kg/injection, schedule: Q01DX011 (ip), vehicle: carboxymethylcellulose (CMC)): 71 % of control | T/C (dose: 109.35 mg/kg/injection, schedule: Q01DX011 (ip), vehicle: carboxymethylcellulose (CMC)): 91 % of control | T/C (dose: 125.0 mg/kg/injection, schedule: Q01DX011 (ip), vehicle: methylcellulose (MC)): 57 % of control | T/C (dose: 173.2 mg/kg/injection, schedule: Q01DX011 (ip), vehicle: carboxymethylcellulose (CMC)): 101 % of control | T/C (dose: 197.35 mg/kg/injection, schedule: Q01DX011 (ip), vehicle: carboxymethylcellulose (CMC)): 69 % of control | T/C (dose: 218.7 mg/kg/injection, schedule: Q01DX011 (ip), vehicle: carboxymethylcellulose (CMC)): 123 % of control | T/C (dose: 250.0 mg/kg/injection, schedule: Q01DX011 (ip), vehicle: methylcellulose (MC)): 54 % of control | T/C (dose: 288.66 mg/kg/injection, schedule: Q01DX011 (ip), vehicle: carboxymethylcellulose (CMC)): 72 % of control | T/C (dose: 394.7 mg/kg/injection, schedule: Q01DX011 (ip), vehicle: carboxymethylcellulose (CMC)): 35 % of control

O=S1(=O)OCc2ccccc21
T/C (dose: 27.5 mg/kg/injection, schedule: Q01DX011 (ip), vehicle: carboxymethylcellulose (CMC)): 113 % of control | T/C (dose: 27.5 mg/kg/injection, schedule: Q01DX011 (ip), vehicle: methylcellulose (MC)): 118 % of control | T/C (dose: 55.0 mg/kg/injection, schedule: Q01DX011 (ip), vehicle: carboxymethylcellulose (CMC)): 68 % of control | T/C (dose: 55.0 mg/kg/injection, schedule: Q01DX011 (ip), vehicle: methylcellulose (MC)): 98 % of control | T/C (dose: 110.0 mg/kg/injection, schedule: Q01DX011 (ip), vehicle: methylcellulose (MC)): 17 % of control

C[C@@H]1CN(C(=O)CCOS(C)(=O)=O)[C@@H](C)CN1C(=O)CCOS(C)(=O)=O
T/C (dose: 4.0 mg/kg/injection, schedule: Q01DX011 (ip), vehicle: saline): 95 % of control | T/C (dose: 8.0 mg/kg/injection, schedule: Q01DX011 (ip), vehicle: saline): 65 % of control | T/C (dose: 9.4 mg/kg/injection, schedule: Q01DX011 (ip), vehicle: carboxymethylcellulose (CMC)): 104 % of control | T/C (dose: 15.0 mg/kg/injection, schedule: Q01DX011 (ip), vehicle: carboxymethylcellulose (CMC)): 61 % of control | T/C (dose: 16.0 mg/kg/injection, schedule: Q01DX011 (ip), vehicle: saline): 60 % of control | T/C [1]: 32 % of control | T/C (dose: 33.0 mg/kg/injection, schedule: Q01DX011 (ip), vehicle: carboxymethylcellulose (CMC)): 21 % of control | T/C (dose: 33.0 mg/kg/injection, schedule: Q01DX011 (ip), vehicle: saline): 52 % of control | T/C (dose: 37.5 mg/kg/injection, schedule: Q01DX011 (ip), vehicle: carboxymethylcellulose (CMC)): 59 % of control and 62 % of control | T/C (dose: 50.0 mg/kg/injection, schedule: Q01DX011 (ip), vehicle: carboxymethylcellulose (CMC)): 27 % of control | T/C (dose: 50.0 mg/kg/injection, schedule: Q01DX011 (ip), vehicle: saline): 15 % of control | T/C [2]: 5 % of control | T/C (dose: 75.0 mg/kg/injection, schedule: Q01DX011 (ip), vehicle: carboxymethylcellulose (CMC)): 9 % of control and 15 % of control and 23 % of control | T/C (dose: 112.5 mg/kg/injection, schedule: Q01DX011 (ip), vehicle: carboxymethylcellulose (CMC)): 10 % of control | T/C [3]: 4 % of control

C1CN1P1(N2CC2)=NP(N2CC2)(N2CC2)=NP(N2CC2)(N2CC2)=NP(N2CC2)(N2CC2)=N1
T/C (dose: 0.4 mg/kg/injection, schedule: Q01DX011 (ip), vehicle: carboxymethylcellulose (CMC)): 48 % of control | T/C (dose: 0.4 mg/kg/injection, schedule: Q02DX011 (ip), vehicle: carboxymethylcellulose (CMC)): 96 % of control | T/C (dose: 0.8 mg/kg/injection, schedule: Q01DX011 (ip), vehicle: carboxymethylcellulose (CMC)): 22 % of control | T/C (dose: 0.8 mg/kg/injection, schedule: Q02DX011 (ip), vehicle: carboxymethylcellulose (CMC)): 54 % of control | T/C (dose: 1.5 mg/kg/injection, schedule: Q01DX011 (ip), vehicle: methylcellulose (MC)): 45 % of control | T/C (dose: 1.5 mg/kg/injection, schedule: Q02DX006 (ip), vehicle: carboxymethylcellulose (CMC)): 50 % of control | T/C (dose: 1.6 mg/kg/injection, schedule: Q01DX011 (ip), vehicle: carboxymethylcellulose (CMC)): 6 % of control | T/C (dose: 1.6 mg/kg/injection, schedule: Q02DX011 (ip), vehicle: carboxymethylcellulose (CMC)): 31 % of control | T/C (dose: 3.0 mg/kg/injection, schedule: Q01DX011 (ip), vehicle: methylcellulose (MC)): 13 % of control | T/C (dose: 3.0 mg/kg/injection, schedule: Q02DX006 (ip), vehicle: carboxymethylcellulose (CMC)): 10 % of control | T/C (dose: 3.2 mg/kg/injection, schedule: Q02DX011 (ip), vehicle: carboxymethylcellulose (CMC)): 1 % of control | T/C (dose: 6.0 mg/kg/injection, schedule: Q02DX006 (ip), vehicle: carboxymethylcellulose (CMC)): 1 % of control

CC(=O)N1CCCCC1
T/C (dose: 12.5 mg/kg/injection, schedule: Q01DX011 (ip), vehicle: other): 92 % of control | T/C (dose: 25.0 mg/kg/injection, schedule: Q01DX011 (ip), vehicle: other): 69 % of control | T/C [4]: 73 % of control | T/C [5]: 85 % of control

— PubChem BioAssay AID180 (DTP/NCI, 2004)
